Data reported in paper PMC5075052, “Modulation of the Substitution Pattern of 5-Aryl-2-Aminoimidazoles Allows Fine-Tuning of Their Antibiofilm Activity Spectrum and Toxicity” (Antimicrobial Agents and Chemotherapy, 2016).
Read-outs that look alike come from different tables or passages of the source.

Tests used:
S. aureus ATCC 6538 = assay: Monospecies bacterial biofilm inhibition, static peg assay (Calgary device, crystal violet; planktonic OD600); type: cell-based, Staphylococcus aureus
Experimental: (§1) A static peg assay, described previously ([27], [74]), was used for bacterial biofilm formation. The Calgary biofilm device consists of a platform carrying 96 polystyrene pegs (Nunc no. 445497) that fits as a microtiter plate lid, with 1 peg hanging into each microtiter plate well (Nunc no. 269789). Twofold serial dilutions of the compounds (dissolved in 100% dimethyl sulfoxide [DMSO] or ethanol) in 100 μl liquid broth (TSB diluted 1/20) per well were prepared in the microtiter plate in duplicate or triplicate with a maximum concentration of 1,600 μM and a minimum concentration of 0.8 μM. Subsequently, an overnight culture of S. Typhimurium ATCC 14028, P. aeruginosa PA14, E. coli TG1, S. epidermidis, S. aureus SH1000, or S. aureus ATCC 6538 (all grown in LB) was diluted 1:100 into TSB diluted 1/20 (or TSB for S. epidermidis, S. aureus SH1000, and S. aureus ATCC 6538), whereas overnight cultures of S. liquefaciens MG44 and B. cepacia LMG1222T were diluted 1:50 into TSB diluted 1/20. P. gingivalis ATCC 33277 cultures were diluted in TSB diluted 1/20 to have a final concentration of 1 × 10^8 cells/ml. Next, 100 μl was added to each well of the microtiter plate, resulting in a total volume of 200 μl medium per well (final concentration range of compounds, 800 μM [2% DMSO or ethanol] to 0.4 μM [0.001% DMSO or ethanol]). In the next step, the pegged lid was placed on the microtiter plate and the plate was incubated for 24 h or 48 h at 25°C or 37°C without shaking. At 37°C, the plates were placed in a sealed container with wet towels on the bottom to prevent evaporation of the growth medium. Biofilms of P. gingivalis ATCC 33277 were grown anaerobically at 37°C for 72 h. During this incubation period, biofilms were formed on the surface of the pegs. After incubation, the optical density at 600 nm (OD600) for the planktonic cells in the microtiter plate was measured using a Synergy MX multimode reader (BioTek, Winooski, VT). This gives a first indication of the effect of the compounds on planktonic growth. For quantification of biofilm formation, the pegs were washed once in 200 μl PBS. The remaining attached bacteria were stained for 30 min with 200 μl 0.1% (wt/vol) crystal violet in an isopropanol-methanol-PBS solution (1:1:18, vol/vol). Excess stain was rinsed off by placing the pegs in a 96-well plate filled with 200 μl distilled water per well. After air drying of the pegs (30 min), the dye bound to the adherent biofilm was extracted with 30% glacial acetic acid (200 μl per well of a 96-well plate). The optical density at 570 nm (OD570) of each well was measured using a Synergy MX multimode reader (BioTek, Winooski, VT). The concentration of each compound needed to inhibit biofilm formation by 50% (BIC50) and the concentration of each compound needed to inhibit planktonic growth by 50% (IC50) were determined from the concentration gradient by using nonlinear curve fitting (GraphPad Prism software, version 5; GraphPad Software, Inc., La Jolla, CA). In the same assay, the effect on planktonic growth was evaluated. The activity was considered biofilm specific if the BIC50 was at least two times lower than the IC50. Data represent the means from at least 3 technical repeats with the corresponding 95% confidence intervals (provided in the supplemental material).

E. coli TG1 = assay: Monospecies bacterial biofilm inhibition, static peg assay; type: cell-based, Escherichia coli; settings: Escherichia coli
Experimental: as §1

P. aeruginosa PA14 = assay: as above; type: cell-based, Pseudomonas aeruginosa; settings: Pseudomonas aeruginosa
Experimental: as §1

C. albicans SC5314 = assay: Inhibition of C. albicans biofilms, CellTiter-Blue quantification; type: cell-based, Candida albicans; settings: Candida albicans; C. albicans SC5314, 37°C, CTB method; read-out: BIC50 (μM) for C. albicans SC5314 (37°C)
Experimental: The potential of the compounds to prevent C. albicans SC5314 biofilm formation was assessed using the CellTiter-Blue (CTB) quantification method ([75]). […]. Twofold serial dilutions of the compounds (dissolved in 100% DMSO or ethanol) in 100 μl RPMI 1640 medium per well were prepared in a round-bottom polystyrene 96-well microtiter plate (TPP; Trasadingen, Switzerland) in duplicate or triplicate with a maximum concentration of 1,600 μM and a minimum concentration of 0.8 μM. One hundred microliters of the cell suspension was added to each well of the microtiter plate, resulting in a total volume of 200 μl medium per well (final concentration range of compounds, 800 μM [2% DMSO or ethanol] to 0.4 μM [0.001% DMSO or ethanol]). After 16 h of static incubation at 37°C, the biofilms were washed and quantified by the CTB method as described previously ([73]).

[1] = system: E. coli TG1 + P. aeruginosa PA14; assay: Mixed-species E. coli-P. aeruginosa biofilm assay (peg, crystal violet); type: cell-based, Escherichia coli + Pseudomonas aeruginosa
Experimental: Overnight cultures of E. coli TG1 and P. aeruginosa PA14 were diluted 1/100 in the same vial of TSB diluted 1/20 to form a mixed-culture suspension. Next, 2-fold serial dilutions of the compounds (dissolved in 100% DMSO or ethanol) in 100 μl liquid broth (TSB diluted 1/20) per well were prepared in the microtiter plate of the Calgary biofilm device (Nunc no. 269789) in duplicate or triplicate with a maximum concentration of 1,600 μM and a minimum concentration of 0.8 μM. One hundred microliters of the mixed-culture suspension was added to each well of the microtiter plate, resulting in a total volume of 200 μl medium per well (final concentration range of compounds, 800 μM [2% DMSO or ethanol] to 0.4 μM [0.001% DMSO or ethanol]). The pegged lid was placed on the microtiter plate, and the plate was incubated for 72 h at 37°C, which allowed biofilm formation on the pegs (Nunc no. 269789) of the Calgary biofilm device. After 72 h, the biofilm was colored with crystal violet as described above ([74]). The OD570 (biofilm cells) and OD600 (planktonic cells) were measured, and the BIC50 and the IC50, respectively, were calculated.

[2] = Staphylococcus aureus, ATCC6538, read-out: BIC50 (concentration needed to inhibit biofilm formation by 50%), S. aureus ATCC 6538, 37°C
[3] = Staphylococcus aureus, ATCC6538, read-out: IC50 (concentration needed to inhibit planktonic growth by 50%), S. aureus ATCC 6538, 37°C, planktonic OD600
[4] = TG1, E. coli TG1, 37°C, read-out: BIC50
[5] = TG1, E. coli TG1, 37°C, read-out: IC50 (planktonic growth)
[6] = PA14, P. aeruginosa PA14, 25°C, read-out: BIC50
[7] = PA14, P. aeruginosa PA14, 37°C, read-out: BIC50
[8] = PA14, P. aeruginosa PA14, 37°C, read-out: IC50 (planktonic growth)
[9] = 72 h, mixed E. coli TG1 + P. aeruginosa PA14, 37°C, read-out: IC50 (planktonic growth)
[10] = 72 h, mixed E. coli TG1 + P. aeruginosa PA14 biofilm, 37°C, read-out: BIC50
[11] = PA14, P. aeruginosa PA14, 25°C, read-out: IC50 (planktonic growth)
[12] = Staphylococcus aureus, ATCC6538, S. aureus ATCC 6538, 37°C, planktonic OD600, read-out: IC50 (concentration needed to inhibit planktonic growth by 50%)
[13] = Staphylococcus aureus, ATCC6538, S. aureus ATCC 6538, 37°C, read-out: BIC50 (concentration needed to inhibit biofilm formation by 50%)
[14] = TG1, E. coli TG1, 25°C, read-out: BIC50
[15] = TG1, E. coli TG1, 25°C, read-out: IC50 (planktonic growth)
[16] = mixed E. coli TG1 + P. aeruginosa PA14, 37°C, read-out: IC50 (planktonic growth)
[17] = mixed E. coli TG1 + P. aeruginosa PA14 biofilm, 37°C, read-out: BIC50

Row | Compound | IC50 (E. coli TG1; [4]) [µM] | IC50 (E. coli TG1; [5]) [µM] | IC50 (P. aeruginosa PA14; [6]) [µM] | IC50 (P. aeruginosa PA14; [7]) [µM] | IC50 (P. aeruginosa PA14; [8]) [µM] | IC50 (C. albicans SC5314) [µM] | IC50 (P. aeruginosa PA14; [11]) [µM] | IC50 (E. coli TG1; [14]) [µM] | IC50 (E. coli TG1; [15]) [µM] | IC50 [1, 16] [µM] | IC50 [1, 17] [µM] | IC50 (S. aureus ATCC 6538; [2]) [µM] | IC50 (S. aureus ATCC 6538; [3]) [µM] | IC50 [1, 9] [µM] | IC50 [1, 10] [µM] | IC50 (S. aureus ATCC 6538; read-out: BIC50 (concentration needed to inhibit biofilm formation by 50%), S. aureus ATCC 6538, 37°C) [µM] | IC50 (S. aureus ATCC 6538; [12]) [µM] | IC50 (S. aureus ATCC 6538; [13]) [µM]
1 | CCCCCn1c(-c2ccccc2)cnc1N [Compound 1] | ~47.8 | 34.1 | 2.1 | 104 | 45.2 | 145 |  |  |  |  |  | 59.3 | 231 | 60.7 | 74.3 |  |  | 
2 | CCCCCCCCn1c(-c2ccc(Cl)cc2)cnc1N [Compound 2] | ~6.5 | 7.7 | 4 | 118 | 10 | 6.2 |  |  |  |  |  | 2 to 6 | 7.8 | 19.9 | 36.8 | 2.8 |  | 
3 | CC(C)CNc1ncc(-c2ccc(Cl)cc2)[nH]1 [Compound 3] | 110 | 30 | 0.9 | > 400 | > 400 | 93.9 |  |  |  |  |  | 95.3 | ~96.1 | > 400 | 7.4 |  |  | 
4 | CCCCNc1ncc(-c2ccc(Br)cc2)[nH]1 [Compound 4] | 84.7 | 23 | 9.8 | > 400 | > 400 | 66.7 |  |  |  |  |  | ~12.3 | 60.1 | > 400 | 17.8 |  |  | 
5 | Clc1ccc(-c2cnc(NC3CCCC3)[nH]2)cc1 [Compound 5] | ~45.7 | 17.1 | 13.5 | > 400 | > 400 | 64 |  |  |  |  |  | 34.4 | 62.3 | > 400 | 0.5 |  |  | 
6 | Brc1ccc(-c2cnc(NCCn3cc(C4CC4)nn3)[nH]2)cc1 [Compound 6] | ~192 | 183 | 71.6 | > 400 | > 400 | > 400 | > 400 |  |  |  |  | 75.2 | > 400 | > 400 | 34.6 |  |  | 

Now from value to compound, other results behind:

Row | IC50 (E. coli TG1; [4]) [µM] | IC50 (E. coli TG1; [5]) [µM] | IC50 (P. aeruginosa PA14; [6]) [µM] | IC50 (P. aeruginosa PA14; [7]) [µM] | IC50 (P. aeruginosa PA14; [8]) [µM] | IC50 (C. albicans SC5314) [µM] | IC50 (P. aeruginosa PA14; [11]) [µM] | IC50 (E. coli TG1; [14]) [µM] | IC50 (E. coli TG1; [15]) [µM] | IC50 [1, 16] [µM] | IC50 [1, 17] [µM] | Compound | IC50 (S. aureus ATCC 6538; [2]) [µM] | IC50 (S. aureus ATCC 6538; [3]) [µM] | IC50 [1, 9] [µM] | IC50 [1, 10] [µM] | IC50 (S. aureus ATCC 6538; read-out: BIC50 (concentration needed to inhibit biofilm formation by 50%), S. aureus ATCC 6538, 37°C) [µM] | IC50 (S. aureus ATCC 6538; [12]) [µM] | IC50 (S. aureus ATCC 6538; [13]) [µM]
7 | 41.2 | 10.2 | > 400 | > 400 | 66 | 9.3 | 75.3 | ~47.2 | 51.2 | > 400 | 6.6 | CCCCCCCCn1c(-c2ccccc2)cnc1NCC(C)C [Compound 8a] |  |  |  |  |  | 17.9 | ~22.9
8 | 330 | 6.1 | > 400 | > 400 | 115 | 11 | 222 | 29.5 | 91.9 | > 400 | > 400 | CCCCCCCCn1c(-c2ccc(Cl)cc2)cnc1NCC(C)C [Compound 8b] |  |  |  |  |  | 9.3 | 5.8
9 | > 400 | 74.1 | > 400 | > 400 | 345 | > 100 | > 400 | > 400 | 150 | > 400 | > 400 | CCCCCCCCn1c(-c2ccc(Br)cc2)cnc1NCC(C)C [Compound 8c] |  |  |  |  |  | 173 | 41
10 | > 400 | 46.3 | > 400 | > 400 | > 400 | > 100 | > 400 | > 400 | 255 | > 400 | > 400 | CCCCCCCCn1c(-c2ccc(Cl)c(Cl)c2)cnc1NCC(C)C [Compound 8d] |  |  |  |  |  | > 400 | 116
11 | ~27.6 | 10.5 | > 400 | > 400 | 167 | ~11.9 | 62.9 | ~26.7 | 189 | > 400 | 101 | CCCCCCCCn1c(-c2ccccc2)cnc1NC1CCCC1 [Compound 8e] |  |  |  |  |  | 46.5 | 1
12 | 306 | 370 | > 400 | > 400 | > 400 | 8.9 | > 400 | 29.1 | > 400 | > 400 | 400 | CCCCCCCCn1c(-c2ccc(Cl)cc2)cnc1NC1CCCC1 [Compound 8f] |  |  |  |  |  | ~24.1 | 6.7
13 | > 400 | 237 | > 400 | > 400 | > 400 | 21.1 | > 400 | 43 | > 400 | > 400 | > 400 | CCCCCCCCn1c(-c2ccc(Br)cc2)cnc1NC1CCCC1 [Compound 8g] |  |  |  |  |  | 19.1 | 8.5
